Literature values, collected in article PMC7855261 (Cell chemical biology, 2020).

System: r(CUG)12-MBNL1 complex
Settings: ref Parkesh et al., 2012; Rzuczek et al., 2015

Nc1ccc2nc(-c3ccc(-c4nc5ccc(N)cc5[nH]4)cc3)[nH]c2c1 [Compound 3, 2,2′-p-Phenylene-bis(5-aminobenzimidazole)]
Bind r(CUG)^exp and inhibit formation of the r(CUG)^exp-MBNL1 complex: inhibit formation of the r(CUG)^exp-MBNL1 complex
